{
  "source": "ChEMBL document CHEMBL1201862",
  "about": "“PubChem BioAssay data set” (2004)",
  "assay_type_in_all_cases": "functional",
  "key": {"[1]": {"target": "Glycogen synthase kinase-3 beta (Homo sapiens, UniProt P49841)", "assay": "inhibition of human GSK3B activity – biochemical, microfluidics, dry powder samples, set 2, dose response (AID 623989)"}, "[2]": {"target": "Glycogen synthase kinase-3 alpha (Homo sapiens, UniProt P49840)", "assay": "GSK3A enzyme blockers, homolog specificity check – biochemical, microfluidics, dry powder samples, set 2, selectivity assay for GSK3beta inhibitor project, dose response (AID 623978)"}, "[3]": {"assay": "Vero cell cytotoxicity, dose response, cytotoxicity control for M. tuberculosis growth inhibitor project, Vero cells, purified and synthesized compounds, set 4 (AID 504854)", "details": "Mycobacterium tuberculosis"}, "[4]": {"assay": "THP-1 cell cytotoxicity, cytotoxicity control, set 4 (AID 504911)", "details": "Mycobacterium tuberculosis"}, "[5]": {"assay": "A Cell Based Secondary Assay to Explore Cytotoxicity in HepG2 Cells of Compounds that Modulate Mycobacterium tuberculosis in Media Containing Glycerol versus Media without Glycerol (2)."}, "[6]": {"assay": "Vero cell cytotoxicity, dose response, cytotoxicity control for M. tuberculosis growth inhibitor project, Vero cells, purified and synthesized compounds, set 5 (AID 504909)", "details": "Mycobacterium tuberculosis"}, "[7]": {"assay": "THP-1 cell cytotoxicity, dose response, cytotoxicity control, set 3 (AID 504852)", "details": "Mycobacterium tuberculosis"}, "[8]": {"assay": "A Cell Based Secondary Assay to Explore Cytotoxicity in THP-1 Cells of Compounds that Modulate Mycobacterium tuberculosis in Media Containing Glycerol versus Media without Glycerol (2)."}, "[9]": {"assay": "HepG2 cell cytotoxicity, dose response, cytotoxicity control, set 3 (AID 504853)", "details": "Mycobacterium tuberculosis"}, "[10]": {"assay": "Vero cell cytotoxicity, cytotoxicity control for M. tuberculosis inhibitor project, purified and synthesized samples, set 3 (AID 504684)", "details": "[…]"}, "[11]": {"target": "Protein kinase C delta type (Homo sapiens, UniProt Q05655)"}, "[12]": {"target": "Tyrosine-protein kinase ABL1 (Homo sapiens, UniProt P00519)"}, "[13]": {"target": "Mitogen-activated protein kinase 12 (Homo sapiens, UniProt P53778)", "sequence (P53778 whole entry)": "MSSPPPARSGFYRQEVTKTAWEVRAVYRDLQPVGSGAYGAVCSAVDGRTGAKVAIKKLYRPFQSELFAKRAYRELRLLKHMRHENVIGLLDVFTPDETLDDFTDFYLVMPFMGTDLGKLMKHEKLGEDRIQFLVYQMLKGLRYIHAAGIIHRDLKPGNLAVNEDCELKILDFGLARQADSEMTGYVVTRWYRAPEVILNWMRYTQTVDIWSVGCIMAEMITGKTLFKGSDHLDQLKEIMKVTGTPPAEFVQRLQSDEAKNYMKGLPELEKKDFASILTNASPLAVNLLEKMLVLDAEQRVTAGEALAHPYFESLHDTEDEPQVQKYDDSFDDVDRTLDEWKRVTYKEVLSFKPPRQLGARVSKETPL"}, "[14]": {"target": "Casein kinase I isoform alpha (Homo sapiens, UniProt P48729)"}, "[15]": {"target": "Proto-oncogene tyrosine-protein kinase ROS (Homo sapiens, UniProt P08922)", "sequence (P08922 whole entry)": "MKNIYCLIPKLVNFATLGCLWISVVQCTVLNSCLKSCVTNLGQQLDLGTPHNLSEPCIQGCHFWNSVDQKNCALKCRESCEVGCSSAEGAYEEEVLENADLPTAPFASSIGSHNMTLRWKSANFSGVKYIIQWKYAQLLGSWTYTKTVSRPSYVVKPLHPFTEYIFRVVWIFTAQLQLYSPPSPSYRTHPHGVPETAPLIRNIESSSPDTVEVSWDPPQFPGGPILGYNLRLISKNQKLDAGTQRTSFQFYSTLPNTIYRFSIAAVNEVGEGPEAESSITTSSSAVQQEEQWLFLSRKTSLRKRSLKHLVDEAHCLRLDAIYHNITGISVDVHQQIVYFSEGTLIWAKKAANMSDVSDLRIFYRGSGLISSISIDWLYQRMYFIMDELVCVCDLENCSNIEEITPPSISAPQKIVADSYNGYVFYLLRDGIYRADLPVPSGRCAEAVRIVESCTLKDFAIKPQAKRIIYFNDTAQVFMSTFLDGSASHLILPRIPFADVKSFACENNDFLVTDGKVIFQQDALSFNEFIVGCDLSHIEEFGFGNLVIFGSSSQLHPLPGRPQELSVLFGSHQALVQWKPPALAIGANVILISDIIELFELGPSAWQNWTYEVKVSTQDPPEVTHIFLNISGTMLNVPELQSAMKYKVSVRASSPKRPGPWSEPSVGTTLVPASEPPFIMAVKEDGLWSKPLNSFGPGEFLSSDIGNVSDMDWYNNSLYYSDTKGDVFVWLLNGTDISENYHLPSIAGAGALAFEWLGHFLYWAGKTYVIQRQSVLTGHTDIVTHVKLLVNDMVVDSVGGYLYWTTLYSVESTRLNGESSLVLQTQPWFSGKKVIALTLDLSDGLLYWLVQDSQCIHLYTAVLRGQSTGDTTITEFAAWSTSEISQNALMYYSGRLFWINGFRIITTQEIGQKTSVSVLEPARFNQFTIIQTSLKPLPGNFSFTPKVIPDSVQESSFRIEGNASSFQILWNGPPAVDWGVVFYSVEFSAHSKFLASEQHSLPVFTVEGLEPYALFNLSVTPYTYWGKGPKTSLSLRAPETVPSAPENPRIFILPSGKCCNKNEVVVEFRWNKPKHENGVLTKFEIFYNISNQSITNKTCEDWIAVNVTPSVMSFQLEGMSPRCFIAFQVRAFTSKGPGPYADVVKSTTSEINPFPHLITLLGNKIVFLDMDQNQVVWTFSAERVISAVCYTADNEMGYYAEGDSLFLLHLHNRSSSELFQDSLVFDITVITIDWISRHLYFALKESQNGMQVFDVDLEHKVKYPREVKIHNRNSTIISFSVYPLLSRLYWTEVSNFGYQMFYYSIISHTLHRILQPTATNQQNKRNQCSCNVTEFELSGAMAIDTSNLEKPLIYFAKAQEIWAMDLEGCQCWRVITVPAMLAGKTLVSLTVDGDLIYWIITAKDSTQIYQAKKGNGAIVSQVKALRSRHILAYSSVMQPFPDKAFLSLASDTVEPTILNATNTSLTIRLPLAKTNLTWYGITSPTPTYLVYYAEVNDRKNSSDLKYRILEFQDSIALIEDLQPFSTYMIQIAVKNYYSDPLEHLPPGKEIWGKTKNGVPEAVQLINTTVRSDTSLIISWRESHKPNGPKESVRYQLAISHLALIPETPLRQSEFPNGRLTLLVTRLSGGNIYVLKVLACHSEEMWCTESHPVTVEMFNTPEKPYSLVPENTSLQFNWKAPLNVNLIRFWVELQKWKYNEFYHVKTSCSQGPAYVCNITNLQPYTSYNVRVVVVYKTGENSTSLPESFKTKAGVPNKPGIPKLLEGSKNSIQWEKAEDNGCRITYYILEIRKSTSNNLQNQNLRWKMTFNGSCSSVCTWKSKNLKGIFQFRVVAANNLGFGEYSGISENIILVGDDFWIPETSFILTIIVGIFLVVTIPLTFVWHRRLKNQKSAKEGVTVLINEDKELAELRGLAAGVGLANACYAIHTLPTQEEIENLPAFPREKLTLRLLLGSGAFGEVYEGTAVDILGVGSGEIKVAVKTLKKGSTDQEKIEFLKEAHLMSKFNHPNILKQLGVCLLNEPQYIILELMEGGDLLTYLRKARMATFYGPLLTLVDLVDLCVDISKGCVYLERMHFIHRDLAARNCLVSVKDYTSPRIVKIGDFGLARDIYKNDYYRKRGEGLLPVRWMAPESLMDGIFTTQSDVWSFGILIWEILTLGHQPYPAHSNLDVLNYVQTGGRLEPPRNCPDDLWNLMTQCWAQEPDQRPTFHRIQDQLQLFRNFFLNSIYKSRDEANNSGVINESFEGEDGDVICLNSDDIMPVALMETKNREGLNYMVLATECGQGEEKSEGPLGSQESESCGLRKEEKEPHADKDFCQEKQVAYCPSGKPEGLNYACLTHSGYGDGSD"}, "[16]": {"target": "Fibroblast growth factor receptor 3 (Homo sapiens, UniProt P22607)"}, "[17]": {"target": "Mitogen-activated protein kinase 8 (Homo sapiens, UniProt P45983)"}, "[18]": {"target": "Calcium/calmodulin-dependent protein kinase type II subunit gamma (Homo sapiens, UniProt Q13555)"}, "[19]": {"target": "Receptor tyrosine-protein kinase erbB-4 (Homo sapiens, UniProt Q15303)", "sequence (Q15303 whole entry)": "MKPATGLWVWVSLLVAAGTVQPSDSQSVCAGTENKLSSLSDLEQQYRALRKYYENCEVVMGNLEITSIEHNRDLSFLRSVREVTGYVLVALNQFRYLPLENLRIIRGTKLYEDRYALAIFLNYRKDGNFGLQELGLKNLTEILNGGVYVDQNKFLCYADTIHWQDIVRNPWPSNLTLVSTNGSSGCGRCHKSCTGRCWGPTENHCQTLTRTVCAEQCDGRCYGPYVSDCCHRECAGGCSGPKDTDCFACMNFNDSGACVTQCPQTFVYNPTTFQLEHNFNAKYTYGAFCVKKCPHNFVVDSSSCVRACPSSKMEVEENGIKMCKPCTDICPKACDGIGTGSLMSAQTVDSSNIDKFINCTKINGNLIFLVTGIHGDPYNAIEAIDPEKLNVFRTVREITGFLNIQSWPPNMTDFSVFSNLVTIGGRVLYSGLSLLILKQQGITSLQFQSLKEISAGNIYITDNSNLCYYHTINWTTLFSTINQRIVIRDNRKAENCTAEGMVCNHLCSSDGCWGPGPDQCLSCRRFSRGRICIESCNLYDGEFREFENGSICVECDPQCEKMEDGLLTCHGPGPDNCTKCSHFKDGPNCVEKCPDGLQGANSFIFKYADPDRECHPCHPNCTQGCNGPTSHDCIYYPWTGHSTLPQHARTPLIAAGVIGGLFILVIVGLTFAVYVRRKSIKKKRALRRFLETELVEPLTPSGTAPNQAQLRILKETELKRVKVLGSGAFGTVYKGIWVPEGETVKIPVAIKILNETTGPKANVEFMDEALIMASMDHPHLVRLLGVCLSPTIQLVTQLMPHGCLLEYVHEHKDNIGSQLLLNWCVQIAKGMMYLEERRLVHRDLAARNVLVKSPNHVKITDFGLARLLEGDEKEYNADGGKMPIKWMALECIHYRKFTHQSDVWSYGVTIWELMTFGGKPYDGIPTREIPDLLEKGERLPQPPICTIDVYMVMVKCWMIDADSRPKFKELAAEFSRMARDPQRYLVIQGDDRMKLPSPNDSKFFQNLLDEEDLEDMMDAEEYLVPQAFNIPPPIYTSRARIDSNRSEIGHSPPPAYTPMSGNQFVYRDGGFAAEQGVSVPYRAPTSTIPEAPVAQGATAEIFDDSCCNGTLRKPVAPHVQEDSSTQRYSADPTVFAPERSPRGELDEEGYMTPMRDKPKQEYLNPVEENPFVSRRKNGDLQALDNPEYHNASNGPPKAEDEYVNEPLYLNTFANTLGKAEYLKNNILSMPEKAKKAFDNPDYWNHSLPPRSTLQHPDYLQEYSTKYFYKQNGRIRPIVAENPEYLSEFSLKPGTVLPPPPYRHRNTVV"}, "[20]": {"target": "Protein-tyrosine kinase 6 (Homo sapiens, UniProt Q13882)"}, "[21]": {"target": "cGMP-dependent protein kinase 1 (Homo sapiens, UniProt Q13976)", "sequence (Q13976 whole entry)": "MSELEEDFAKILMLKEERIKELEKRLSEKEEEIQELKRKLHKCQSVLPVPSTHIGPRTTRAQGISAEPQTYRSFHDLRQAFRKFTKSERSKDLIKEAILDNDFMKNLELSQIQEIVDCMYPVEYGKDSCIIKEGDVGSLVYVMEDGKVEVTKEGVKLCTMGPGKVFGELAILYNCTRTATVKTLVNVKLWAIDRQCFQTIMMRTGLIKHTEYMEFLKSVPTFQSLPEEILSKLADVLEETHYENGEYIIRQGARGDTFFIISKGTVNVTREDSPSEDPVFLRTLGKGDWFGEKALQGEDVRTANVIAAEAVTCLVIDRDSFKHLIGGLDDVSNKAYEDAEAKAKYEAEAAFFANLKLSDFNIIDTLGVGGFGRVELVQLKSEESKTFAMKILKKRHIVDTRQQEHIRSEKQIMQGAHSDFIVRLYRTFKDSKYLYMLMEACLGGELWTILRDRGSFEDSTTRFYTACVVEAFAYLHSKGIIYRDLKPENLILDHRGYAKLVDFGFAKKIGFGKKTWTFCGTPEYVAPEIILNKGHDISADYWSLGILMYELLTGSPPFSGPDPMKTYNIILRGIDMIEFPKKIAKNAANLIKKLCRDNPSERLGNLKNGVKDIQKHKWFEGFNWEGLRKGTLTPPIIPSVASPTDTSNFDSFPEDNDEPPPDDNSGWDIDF"}, "[22]": {"target": "Serine/threonine-protein kinase pim-1 (Homo sapiens, UniProt P11309)", "sequence (P11309 whole entry)": "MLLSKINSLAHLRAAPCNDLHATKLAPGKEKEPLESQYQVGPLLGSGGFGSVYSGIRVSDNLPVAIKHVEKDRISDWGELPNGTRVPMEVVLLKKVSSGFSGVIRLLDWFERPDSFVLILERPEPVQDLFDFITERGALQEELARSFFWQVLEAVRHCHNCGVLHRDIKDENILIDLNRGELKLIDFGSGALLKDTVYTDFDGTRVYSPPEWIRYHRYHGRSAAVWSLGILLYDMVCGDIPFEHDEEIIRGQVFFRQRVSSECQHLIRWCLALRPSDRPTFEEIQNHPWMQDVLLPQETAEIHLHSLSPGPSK"}, "[23]": {"target": "Protein kinase C iota type (Homo sapiens, UniProt P41743)"}, "[24]": {"target": "Protein-tyrosine kinase 2-beta (Homo sapiens, UniProt Q14289)"}, "[25]": {"target": "Homeodomain-interacting protein kinase 2 (Homo sapiens, UniProt Q9H2X6)"}, "[26]": {"target": "Serine/threonine-protein kinase Chk2 (Homo sapiens, UniProt O96017)"}, "[27]": {"target": "Ribosomal protein S6 kinase beta-1 (Homo sapiens, UniProt P23443)"}},
  "note": "Active and inactive are the calls of the source.",
  "data": [
    {"smiles": "Nc1nc(NCC2CCCO2)nc(Nc2ccc(F)cc2)c1[N+](=O)[O-]", "note": "(configuration not stated)", "values": [
      {"measurement": "AC50", "setting": "[1]", "value": "0.802 µM (active)"},
      {"measurement": "AC50", "setting": "[2]", "value": "2.42 µM (active)"}
    ]},
    {"smiles": "Cc1cc(C)n2nc(N)c(/N=N/c3ccccc3)c2n1", "values": [
      {"measurement": "CC50", "setting": "[3]", "value": "93 µM (active)"},
      {"measurement": "CC50", "setting": "[4]", "value": "> 99.5 µM (active)"},
      {"measurement": "CC50", "setting": "[5]", "value": "> 50 µM (active)"},
      {"measurement": "CC50", "setting": "[6]", "value": "> 100 µM (active)"},
      {"measurement": "CC50", "setting": "[7]", "value": "> 100 µM (active)"},
      {"measurement": "CC50", "setting": "[8]", "value": "> 100 µM (active)"},
      {"measurement": "CC50", "setting": "[9]", "value": "> 50 µM (active)"},
      {"measurement": "CC50", "setting": "[10]", "value": "83.7 µM (active)"}
    ]},
    {"smiles": "CCC1C(=O)N(C)c2cnc(Nc3ccc(C(=O)NC4CCN(C)CC4)cc3OC)nc2N1C1CCCC1", "note": "(configuration not stated)", "values": [
      {"measurement": "Ki", "setting": "[11]", "value": "> 6.31 µM (inactive)"},
      {"measurement": "Ki", "setting": "[12]", "value": "> 0.631 µM (inactive)"},
      {"measurement": "Ki", "setting": "[13]", "value": "> 6.31 µM (inactive)"},
      {"measurement": "Ki", "setting": "[14]", "value": "> 6.31 µM (inactive)"},
      {"measurement": "Ki", "setting": "[15]", "value": "> 2 µM (inactive)"},
      {"measurement": "Ki", "setting": "[16]", "value": "> 2 µM (inactive)"},
      {"measurement": "Ki", "setting": "[17]", "value": "> 3.16 µM (inactive)"},
      {"measurement": "Ki", "setting": "[18]", "value": "0.2 µM (active)"},
      {"measurement": "Ki", "setting": "[19]", "value": "> 3.98 µM (inactive)"},
      {"measurement": "Ki", "setting": "[20]", "value": "> 2.51 µM (inactive)"},
      {"measurement": "Ki", "setting": "[21]", "value": "> 2 µM (inactive)"},
      {"measurement": "Ki", "setting": "[22]", "value": "> 10 µM (inactive)"},
      {"measurement": "Ki", "setting": "[23]", "value": "> 5.01 µM (inactive)"},
      {"measurement": "Ki", "setting": "[24]", "value": "0.631 µM (active)"},
      {"measurement": "Ki", "setting": "[25]", "value": "> 3.16 µM (inactive)"},
      {"measurement": "Ki", "setting": "[26]", "value": "1.58 µM (active)"},
      {"measurement": "Ki", "setting": "[27]", "value": "> 6.31 µM (inactive)"}
    ]}
  ]
}
